The text below walks through data of paper PMC11650361 (Archiv Der Pharmazie, 2024).

In data set [1] the test system is porcine liver CES. Briefly: In vitro CES inhibition (4-NPA substrate). Particulars: for CES inhibition, %: % inhibition at 20 μM, n.a. = not active. It counts as biochemical. Here is the method:
The esterase profile of the synthesized conjugates was determined. This included an assessment of their inhibition of cholinergic targets AChE and BChE along with a structurally related enzyme CES (EC 3.1.1.1), which hydrolyzes numerous ester‐containing drugs and is considered as an off‐target for anti‐AD agents.^[ [9], [40] ^] Human erythrocyte AChE, equine serum BChE, and porcine liver CES were used.^[ [40], [41], [42] ^]
Initially, we used a single concentration of 20 µM for all compounds.
^a All experiments were carried out in accordance with the standard protocols approved by IPAС RAS. Human erythrocyte AChE, equine serum BChE were purchased from Milamed (Perm, Russia). Porcine liver CES, substrates, and reference compounds were from Sigma-Aldrich (St. Louis, MO, USA). The activity of enzymes was measured spectrophotometrically, as described in detail in ^[1] using ATCh iodide, BTCh iodide, and 4-NPA as substrates for AChE, BChE, and CES, respectively. Experimental conditions: K,Na-phosphate buffer (100 mM), 25 °С, pH 7.5 for AChE and BChE and pH 8.0 for CES assay. Measurements were carried out on a FLUOStar Optima microplate reader (BMG Labtech, Ortenberg, Germany). Test compounds were dissolved in DMSO; final concentration of solvent in the incubation mixture was 2% (v/v).

For the next data set, the target named is T1, equine serum BChE (Equus caballus, UniProt P81908).
T1 construct: purchased Sigma-Aldrich; Milamed, Perm, Russia (supplement); host or cells: horse serum
Briefly: biochemical.

In data set [2] the test system is HEK293T (human embryonic kidney) cells. Briefly: Cytotoxicity, MTT assay, HEK293T. To be noted: HEK-293T, 24 h. It is filed as cell-based. (Formazan colour is commonly taken as a measure of viable cells.)
In data set [3] the test system is HepG2 cells (human hepatocellular carcinoma). The experiment in a line: Cytotoxicity, MTT assay, HepG2. It counts as cell-based.
The target of data set [4] is T2, PAS of Electrophorus electricus AChE (EeAChE) (Electrophorus electricus, UniProt O42275).
T2 construct: purchased Sigma-Aldrich type VI-S; host or cells: electric eel tissue
It is filed as binding. To be noted: 20 µM compound concentration. Here is the method: The ability of the test compounds to competitively displace propidium was evaluated by the fluorescence method,^[ [65] ^] as described in detail in Makhaeva et al.^[ [66] ^] […] After 15 min of incubation of the test compounds at a concentration of 20 μM with a 7 μM solution of EeAChE in 1 mM Tris‐HCl buffer, pH 8.0, 25°C, propidium iodide (final concentration 8 μM) was added. Then, the solutions were incubated for 15 min and the fluorescence spectrum was recorded (530 nm (excitation) and 600 nm (emission)). […] Measurements were performed in triplicate on a FLUOStar Optima microplate reader (BMG LabTech).
The 7 μM EeAChE was incubated with the test compound at a concentration of 20 μM in 1 mM Tris-HCl buffer pH 8.0, 25 °C, for 15 min. After that, propidium iodide was added at final concentration of 8 μM. The samples were incubated for 15 min and the fluorescence spectrum (530 nm (excitation) and 600 nm (emission)) was taken. […] The measurements were carried out in triplicate on a FLUOStar Optima microplate reader. The degree of propidium displacement (% displacement) from the PAS of EeAChE was calculated by formula (1):
% Displacement = 100 – (IFAChE+ Propidium + inhibitor / IFAChE + Propidium) × 100 (1),
where IFAChE + Propidium is the fluorescence intensity of the propidium associated with AChE in the absence of the test compound (taken as 100%), and IFAChE + Propidium + inhibitor is the fluorescence intensity of the propidium associated with AChE in the presence of the test compound.

A further data set concerns the target T3, human erythrocyte AChE (Homo sapiens, UniProt P22303).
T3 construct: purchased Sigma-Aldrich; Milamed, Perm, Russia (supplement); host or cells: human erythrocytes
The experiment in a line: biochemical. It counts as biochemical. Particulars: for IC50: human erythrocyte AChE, mean ± SEM, n = 3.

A short description of data set [5]: ABTS radical cation scavenging activity assay. To be noted: for IC50: concentration reducing ABTS radical by 50%, 1 h; for ABTS^•+‐scavenging activity, TEAC: relative to Trolox, 1 h incubation, n.a. = inactive.
Experimental: Data are given for 1 h of incubation of compounds with ABTS^•+. The AOA of the compounds was evaluated as Trolox equivalent antioxidant capacity (TEAC values) as the ratio of the slopes of the concentration–response curves, test compound/Trolox. All tests were performed at least in triplicate in three independent experiments. The IC50 values for the test compounds were also determined.
The next data set deals with β‐amyloid (1–42) (Aβ42) (Homo sapiens, UniProt P05067). Briefly: Inhibition of Aβ42 self-aggregation (thioflavin T fluorescence). It is filed as biochemical. To be noted: Aβ42 50 µM, compound 100 µM; read-out: Inhibition of Aβ42 self‐aggregation, %. As to the method: Inhibition of Aβ42 self‐aggregation by test compounds was studied using the ThT fluorescence method^[ [67], [68] ^] with minor modifications as described in detail in Makhaeva et al.^[ [16] ^] Lyophilized hexamfluoroisopropanol‐pretreated Aβ42 (GenicBio Limited, 1 mg) was dissolved in DMSO to obtain a stable 500 μM solution. […] Myricetin and propidium iodide in the same concentration were used as references. […] Each assay was run in triplicate.
^c The inhibitory effect of the test compounds toward Aβ42 self-aggregation was determined using the thioflavin T (ThT) fluorescence method ^[5-7] with minor modifications as described in detail in ^[8]. Lyophilized HFIP-pretreated Aβ42 from BACHEM (Bubendorf, Switzerland) was used. […] Myricetin and propidium iodide were used as reference compounds (positive controls). Analyses were performed with a FLUOStar Optima microplate reader (LabTech, Ortenberg, Germany). The inhibition (%) of Aβ42 self-aggregation by the test compounds was calculated by the following equation: […]
where IFi and IFo are the fluorescence intensities obtained for Aβ42 in the presence and in the absence of inhibitor, respectively, after subtracting the fluorescence of respective blanks.

In data set [6] the test system is SH‐SY5Y (human neuroblastoma) cells. The experiment in a line: Cytotoxicity, MTT assay, SH-SY5Y. It is filed as cell-based. To be noted: 24 h.
The conditions of data set [7]: cited from earlier work.
On the set-up of data set [8]: method as in PMID 35322571. To be noted: cited from earlier work.
Data set [9] deals with porcine liver CES. On the set-up: method as in PMID 35322571. Particulars: % inhibition at 20 μM; cited from earlier work.
The mark [10] stands for this setting: equine serum BChE, mean ± SEM, n = 3.
[11] abbreviates: MTT, mean ± SEM, n = 3, read-out: HEK293T IC50.
[12] abbreviates: HepG2, MTT, 24 h, mean ± SEM, n = 3, read-out: Hep G2 IC50.
[13] abbreviates: MTT, mean ± SEM, n = 3, read-out: SH‐SY5Y IC50.

Where two headings read alike, the source gives them in different places.

T2 sequence (O42275 24-633): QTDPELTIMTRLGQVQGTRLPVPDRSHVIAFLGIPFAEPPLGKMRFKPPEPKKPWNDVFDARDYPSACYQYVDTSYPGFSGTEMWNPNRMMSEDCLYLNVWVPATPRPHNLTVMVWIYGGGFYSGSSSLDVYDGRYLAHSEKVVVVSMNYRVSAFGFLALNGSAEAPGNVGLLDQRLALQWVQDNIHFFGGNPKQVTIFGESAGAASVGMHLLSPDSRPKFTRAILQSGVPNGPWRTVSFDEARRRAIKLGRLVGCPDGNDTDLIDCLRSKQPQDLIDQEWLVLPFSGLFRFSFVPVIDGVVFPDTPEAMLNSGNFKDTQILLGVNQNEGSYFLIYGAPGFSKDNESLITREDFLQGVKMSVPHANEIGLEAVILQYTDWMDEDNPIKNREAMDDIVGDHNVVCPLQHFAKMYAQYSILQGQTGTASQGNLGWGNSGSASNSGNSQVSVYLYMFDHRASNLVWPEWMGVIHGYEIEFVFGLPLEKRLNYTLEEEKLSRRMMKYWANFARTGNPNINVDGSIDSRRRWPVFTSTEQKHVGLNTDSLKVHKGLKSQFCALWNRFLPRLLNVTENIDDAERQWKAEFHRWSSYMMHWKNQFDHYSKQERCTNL
Chain of β‐amyloid (1–42) (Aβ42) (P05067 672-713 limits assumed): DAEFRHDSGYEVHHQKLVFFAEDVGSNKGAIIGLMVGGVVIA
T1 sequence (P81908 whole entry): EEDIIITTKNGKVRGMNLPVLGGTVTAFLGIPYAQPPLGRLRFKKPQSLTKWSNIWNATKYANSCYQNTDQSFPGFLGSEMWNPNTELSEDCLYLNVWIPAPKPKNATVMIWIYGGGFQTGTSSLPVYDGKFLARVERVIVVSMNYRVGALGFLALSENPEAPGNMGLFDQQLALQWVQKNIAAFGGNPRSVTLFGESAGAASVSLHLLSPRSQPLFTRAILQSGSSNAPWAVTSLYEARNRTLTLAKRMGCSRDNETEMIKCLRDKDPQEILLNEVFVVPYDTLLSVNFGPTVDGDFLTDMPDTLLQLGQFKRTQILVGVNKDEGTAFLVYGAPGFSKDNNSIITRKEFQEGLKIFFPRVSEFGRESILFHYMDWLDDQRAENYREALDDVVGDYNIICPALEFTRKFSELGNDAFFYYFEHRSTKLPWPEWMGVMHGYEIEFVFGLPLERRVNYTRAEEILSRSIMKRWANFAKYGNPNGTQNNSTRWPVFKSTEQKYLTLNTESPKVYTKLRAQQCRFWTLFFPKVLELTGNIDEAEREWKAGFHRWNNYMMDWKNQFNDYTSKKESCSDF
T3 sequence (P22303 32-617 isoform P22303-2 limits assumed): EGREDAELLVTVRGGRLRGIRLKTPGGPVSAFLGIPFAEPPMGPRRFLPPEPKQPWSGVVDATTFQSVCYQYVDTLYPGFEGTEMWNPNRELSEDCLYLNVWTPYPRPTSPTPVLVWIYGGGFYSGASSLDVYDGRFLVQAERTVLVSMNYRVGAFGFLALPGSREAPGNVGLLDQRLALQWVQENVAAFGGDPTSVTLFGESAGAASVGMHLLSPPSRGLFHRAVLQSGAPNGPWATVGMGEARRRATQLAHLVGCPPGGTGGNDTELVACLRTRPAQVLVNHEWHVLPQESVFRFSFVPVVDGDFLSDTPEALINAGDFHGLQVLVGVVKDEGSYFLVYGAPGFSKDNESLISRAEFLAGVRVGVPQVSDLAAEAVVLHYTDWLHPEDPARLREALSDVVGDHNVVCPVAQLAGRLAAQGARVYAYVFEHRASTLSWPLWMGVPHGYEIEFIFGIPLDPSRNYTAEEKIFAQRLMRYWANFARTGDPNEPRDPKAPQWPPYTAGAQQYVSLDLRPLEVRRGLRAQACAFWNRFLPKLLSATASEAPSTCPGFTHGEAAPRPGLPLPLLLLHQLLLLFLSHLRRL

With `O=C(NCCCCCCCCNc1c2c(nc3c1CCC3)CCCC2)c1ccccc1O` [7c, N‐{8‐[(2,3,5,6,7,8‐hexahydro‐1H‐cyclopenta[b]quinolin‐9‐yl)amino]octyl}−2‐hydroxybenzamide], the “CES inhibition, %” value with porcine liver CES [1] was determined as 32.9 ± 0.9%. For the same molecule, the “BChE inhibition, times more effective than amiridine” value on equine serum BChE is given as 25 times. For the same molecule, the IC50 on equine serum BChE came to 0.011 ± 0.0001 µM; at equine serum BChE (setting [10]) it was 0.0111 ± 0.0001 µM; in data set [2] (setting [11]), 3.62 ± 0.02 µM; in [3] (setting [12]) it was 6.92 ± 1.22 µM; against human erythrocyte AChE it was 1.53 ± 0.03 µM; in data set [5] it was 19.4 ± 0.6 µM. Moreover, the half-maximal inhibitory concentration (IC50) in data set [6] (setting [13]) amounted to 7.99 ± 0.3 µM. The “Selectivity index IC50AChE/IC50BChE” value on equine serum BChE was 138. In addition, the “Propidium displacement, %” value in data set [4] stood at 11.8 ± 0.8%. For the same molecule, in data set [5], the “ABTS^•+‐scavenging activity, TEAC” value was determined as 0.94 ± 0.04. Besides, at β‐amyloid (1–42) (Aβ42), the inhibition at 100 µM was 74.1 ± 5.1%.
As to `Oc1ccccc1C=NCCCCNc1c2c(nc3c1CCC3)CCCC2` [9a, 2‐[({4‐[(2,3,5,6,7,8‐Hexahydro‐1H‐cyclopenta[b]quinolin‐9‐yl)amino]butyl}imino)methyl]phenol], the “CES inhibition, %” value with porcine liver CES [1] was determined as 10.5 ± 0.9%. For the same molecule, the “Selectivity index IC50AChE/IC50BChE” value at equine serum BChE is recorded as 5.2. Further, the IC50 is 0.642 ± 0.007 µM against equine serum BChE (setting [10]); 38.1 ± 2.1 µM in data set [2] (setting [11]); greater than 100 µM in data set [3] (setting [12]); 3.31 ± 0.02 µM against human erythrocyte AChE; 26.6 ± 1.1 µM in [5]; 73.2 ± 0.9 µM in data set [6] (setting [13]). The “Propidium displacement, %” value in data set [4] amounted to 12.5 ± 1.1%. For the same molecule, the “ABTS^•+‐scavenging activity, TEAC” value is 0.65 ± 0.03 in data set [5] and 0.65 in [5] (listed as 9a a). Besides, at β‐amyloid (1–42) (Aβ42), the inhibition at 100 µM stood at 20.1 ± 1.4%.
Turning to `Oc1ccccc1C=NCCCCCCCCNc1c2c(nc3c1CCC3)CCCC2` [9c, 2‐[({8‐[(2,3,5,6,7,8‐Hexahydro‐1H‐cyclopenta[b]quinolin‐9‐yl)amino]octyl}imino)methyl]phenol], the “CES inhibition, %” value in the data set on porcine liver CES [1] came to 25.8 ± 0.7%. Further, on equine serum BChE, the “Selectivity index IC50AChE/IC50BChE” value stood at 56.8. Besides, the half-maximal inhibitory concentration (IC50) came out at 0.025 ± 0.001 µM on equine serum BChE (setting [10]); 22.2 ± 2.2 µM in [2] (setting [11]); 95.9 ± 5.4 µM in [3] (setting [12]); 1.42 ± 0.14 µM at human erythrocyte AChE; 29.6 ± 1.2 µM in [5]; 63.5 ± 4.4 µM in data set [6] (setting [13]). The “Propidium displacement, %” value in data set [4] came out at 11.6 ± 0.9%. Also, in data set [5], the “ABTS^•+‐scavenging activity, TEAC” value came to 0.63 ± 0.02. At β‐amyloid (1–42) (Aβ42), the inhibition at 100 µM was 71.7 ± 5.1%.
As for `Oc1ccccc1CNCCCCNc1c2c(nc3c1CCC3)CCCC2` [10a, 2‐[({4‐[(2,3,5,6,7,8‐Hexahydro‐1H‐cyclopenta[b]quinolin‐9‐yl)amino]butyl}amino)methyl]phenol], the “CES inhibition, %” value in the data set with porcine liver CES [1] was 6.2 ± 0.5%. Further, at equine serum BChE, the “Selectivity index IC50AChE/IC50BChE” value was 12.1. The IC50 is 0.198 ± 0.019 µM on equine serum BChE (setting [10]); 4.49 ± 0.27 µM in data set [2] (setting [11]); 27.6 ± 1.3 µM in data set [3] (setting [12]); 2.4 ± 0.15 µM against human erythrocyte AChE; 10.1 ± 0.5 µM in data set [5]; 90.8 ± 1.3 µM in [6] (setting [13]). The “Propidium displacement, %” value in data set [4] turned out to be 13.6 ± 0.9%. Moreover, the “ABTS^•+‐scavenging activity, TEAC” value was determined as 1.5 ± 0.08 in data set [5] and 1.5 in data set [5] (listed as 10a as). The inhibition at 100 µM at β‐amyloid (1–42) (Aβ42) stood at 30.5 ± 2.4%.
For `Oc1ccccc1CNCCCCCCCCNc1c2c(nc3c1CCC3)CCCC2` [10c, 2‐[({8‐[(2,3,5,6,7,8‐Hexahydro‐1H‐cyclopenta[b]quinolin‐9‐yl)amino]octyl}amino)methyl]phenol], the “CES inhibition, %” value in the data set with porcine liver CES [1] is on record as 56.3±0.3 (IC50= 10.5±0.1 µM) %. The IC50 amounted to 10.5 ± 0.1 µM in the data set with porcine liver CES [1] (porcine liver CES); 0.022 ± 0.0002 µM against equine serum BChE (setting [10]); 2.33 ± 0.15 µM in data set [2] (setting [11]); 4.19 ± 0.2 µM in [3] (setting [12]); 0.265 ± 0.018 µM against human erythrocyte AChE; 10.1 ± 0.6 µM in [5]. For the same molecule, in [6] (setting [13]), the IC50 amounted to 10.9 ± 0.6 µM. Further, the “Selectivity index IC50AChE/IC50BChE” value at equine serum BChE worked out at 12.0. Further, in [4], the “Propidium displacement, %” value is listed as 15.8 ± 1.1%. Moreover, the “AChE inhibition, times more active than amiridine” value on human erythrocyte AChE was “about 17 times”. In addition, the “ABTS^•+‐scavenging activity, TEAC” value in data set [5] worked out at 1.48 ± 0.05. Further, the inhibition at 100 µM on β‐amyloid (1–42) (Aβ42) is 96.7 ± 6.7%.
Consider `Cl.Nc1c2c(nc3c1CCC3)CCCC2.O` [Amiridine, 9‐amino‐2,3,5,6,7,8‐hexahydro‐1H‐cyclopenta[b]quinoline monohydrochloride monohydrate, reference compound], for which the “pKa of the endocyclic nitrogen atom” value in data set [7] is on record as 9.52. Besides, the IC50 in [2] (read-out: HEK293T IC50) is 106 ± 3 µM; in data set [3] (HepG2, 24 h, read-out: Hep G2 IC50) it was 224 ± 11.2 µM; in [6] (read-out: SH‐SY5Y IC50), 135 ± 18.2 µM. Further, in data set [5], the “ABTS^•+‐scavenging activity, TEAC” value was 0.040 ± 0.003.
Regarding `CCCCCCNC(=O)c1ccccc1O` [compound 14, N‐hexylsalicylamide], in data set [8], the “ABTS^•+‐scavenging activity, TEAC” value was 0.39 ± 0.04. Moreover, the concentration for half-maximal inhibition (IC50) in data set [8] (read-out: ABTS^•+‐scavenging activity, IC50) was 46.5 ± 2.3 µM. The “CES inhibition, %” value in the data set with porcine liver CES [9] is 4.9 ± 1.0%.

The IC50 is the concentration that inhibits the measured activity by half. As a reminder, the inhibition is how much of the control response was suppressed.
